Our source for the viability values is article PMC12040169 (PLOS Biology, 2025).

Each structure is given as a SMILES string.

The nature of the first data set: in vitro. As to conditions: human, hela cells, % viability.
What is called viability is a read-out of living cells in per cent, often relative to untreated cells. Turning to `COC(=O)c1ccc(OCCn2nc(C)c(C)c(C#N)c2=O)cc1` [CBK305676], the viability at 28.5 h, 10 µM was found to be 69.5%.
On the same count and under the same terms, then `CCOC(=O)c1cnn2c(O)cc(CN3CCc4ccccc4C3)nc12` [CBK305679], with 97.2%; and `CCOC(=O)c1cnn2c(O)cc(CN3CCc4sccc4C3)nc12` [CBK305680], with 106%; and `Cc1ccc(Cl)c(OC(C)C(=O)NCC2(N3CCOCC3)CCSC2)c1` (stereo not drawn) [CBK305681], with 110%.
On the same count and under the same terms, with `COc1cccc(CC(=O)NCCNc2cccc(F)c2C#N)c1` [CBK305684] the figure was 78.5%; with `N#Cc1cccc(OCC(=O)NCC2(N3CCOCC3)CCSC2)c1` (stereo not drawn) [CBK305685], 86.3%.
On to `O=C(Cn1cc(Br)ccc1=O)NC1CCN(Cc2ccccn2)CC1` [CBK305686], for which the viability at 28.5 h, 10 µM stood at 92.2%.
With `CCCC(=O)Nc1ccc(-c2csc(CCN3CCOC3=O)n2)cc1` [CBK305687], the viability at 28.5 h, 10 µM came to 97%.
Consider `Cc1cc(NC(=O)C2CCN(c3ncccc3C#N)CC2)no1` [CBK305689], for which the viability at 28.5 h, 10 µM turned out to be 88.3%.
The same measure, in the same setting: then `Cc1nn(C)c(C)c1CCC(=O)OCc1cc(=O)n2ccccc2n1` [CBK305690], with 90.8%; and `Cn1cc(CCNC(=O)N2CCN(Cc3ccsc3)CC2)cn1` [CBK305692], with 88.6%; and `Cc1cc(C)n(CC(=O)NC(CC(=O)O)c2ccccc2Cl)n1` (stereo not drawn) [CBK305695], with 106%.
Still for that read-out and setting: with `CCN(Cc1ccc(C#N)cc1F)C(=O)Nc1cnn(CCOC)c1` [CBK305697] the figure was 91.9%; with `COc1ccc(CN2CCN(C(=O)c3ccc(C#N)cc3)CC2)cc1` [CBK305698], 99.6%; with `Cc1ccc(C(=O)N2CCN(Cc3cc(=O)n4ccsc4n3)CC2)cn1` [CBK305700], 89.4%.
Same read-out and setting: with `Cc1nn(CC(=O)N(C)Cc2cnn(C)c2)c(=O)c2ccccc12` [CBK305701] the figure was 103%; with `Cc1[nH]c(=O)[nH]c(=O)c1CCC(=O)N(C)CC(=O)Nc1cccc(F)c1` [CBK305703], 99.6%.
In the case of `O=C(Cn1ccc(=O)[nH]c1=O)NCc1cccnc1-n1cccn1` [CBK305705], the viability at 28.5 h, 10 µM was determined as 85%.
`Cc1cc(NC(=O)Cn2cc(Br)cn2)no1` [CBK305706]: the viability at 28.5 h, 10 µM was determined as 102%.
On the same count and under the same terms, with `Cc1cc(N2CCN(C(=O)CCc3ccsc3)CC2)nc(C(C)C)n1` [CBK305710] the figure was 113%; with `CNS(=O)(=O)c1ccc(CCC(=O)N(C)Cc2cnn(C)c2)cc1` [CBK305712], 84.9%; with `Cn1cc(C(=O)Nc2cccc(S(=O)(=O)N3CCCCCC3)c2)cn1` [CBK305715], 87.2%.
On the same count and under the same terms, then `Cc1ccccc1CN1CCC(NC(=O)Cn2cc(Br)ccc2=O)CC1` [CBK305716], with 93.1%.
With `N#Cc1cccc(C(=O)N2CCC(NC(=O)c3ccc(F)cc3)CC2)c1` [CBK305717], the viability at 28.5 h, 10 µM was 111%.
On the same count and under the same terms, with `Cc1nn(CC(C)C)c(C)c1CCC(=O)NCc1nnc2ccccn12` [CBK305719] the figure was 88.1%; with `Cc1cc(CN(C)C(=O)c2cccc(NC(=O)C3CCCCC3)c2)no1` [CBK305722], 92.6%.
Still for that read-out and setting: then `CN1N=C(c2ccc(N3CCOCC3)c(F)c2)CC1c1cnn(C)c1` (stereo not drawn) [CBK305726], with 87.6%.
The same measure, in the same setting: with `O=C(Nc1ccc2nc(CN3CCOCC3)[nH]c2c1)C1CCCCC1` [CBK305728] the figure was 80.5%.
Regarding `CCN(CCC(F)(F)F)C(=O)Cc1csc(NC(=O)c2ccoc2C)n1` [CBK305729], the viability at 28.5 h, 10 µM came out at 83.3%.
`CCN(Cc1ccc(C#N)cc1F)C(=O)Nc1cc(C)nn1C` [CBK305730]: the viability at 28.5 h, 10 µM amounted to 94.2%.
For the compound `CS(=O)(=O)c1cc(Br)cc(C(=O)NCCNc2cnccn2)c1F` [CBK305731], the viability at 28.5 h, 10 µM was 85.8%.
The same measure, in the same setting: then `CCN(CC(=O)NCc1ccc(Cl)cc1)S(=O)(=O)N1CCCCCC1` [CBK305733], with 110%; and `CCN(CC)C(=O)COc1ccc(NC(=O)Nc2cc(C)on2)cc1Cl` [CBK305734], with 104%.
The same measure, in the same setting: then `CNC(=O)c1cccc(NC(=O)C(C)N(C)Cc2cnc(C)s2)c1` (stereo not drawn) [CBK305735], with 81.5%; and `CS(=O)(=O)NCC1CCCN(C(=O)Nc2cccc(Cl)c2)C1` (stereo not drawn) [CBK305736], with 79.5%.
Take `O=C(NC1CCN(CCOc2ccccc2F)CC1)c1cccs1` [CBK305737]: the viability at 28.5 h, 10 µM is 96.8%.
On the same count and under the same terms, then `c1ccc(N2CCC(CNCc3c[nH]nc3-c3cccnc3)C2)cc1` (stereo not drawn) [CBK305738], with 88.7%; and `COc1ccnc(N2CCN(C(=O)C3(C#N)CCCCC3)CC2)n1` [CBK305739], with 92.2%; and `CC(NC(=O)c1ccc(-c2ccccc2F)s1)C(=O)N1CCCCC1` (stereo not drawn) [CBK305740], with 91.3%.
For `CC1CCc2c(C(=O)N3CCC4(CC3)NC(=O)NC4=O)csc2C1` (stereo not drawn) [CBK305741], the viability at 28.5 h, 10 µM was determined as 101%.
`CN(Cc1cnn(C)c1)C(=O)c1ccc(Br)cc1O` [CBK305742]: the viability at 28.5 h, 10 µM came out at 104%.
Still for that read-out and setting: with `CC(=O)Nc1ccc(NCc2nc(C(C)C)no2)c(C(F)(F)F)c1` [CBK305743] the figure was 101%; with `CC(=O)Nc1cccc(-n2nnnc2SCC2CCCCO2)c1` (stereo not drawn) [CBK305746], 91.5%; with `CC1CCc2nc3ccccc3c(C(=O)N(C)Cc3cnn(C)c3)c2C1` (stereo not drawn) [CBK305749], 96.9%.
The same measure, in the same setting: with `CC(C)n1ncc2cc(C(=O)Nc3ncccc3O)cnc21` [CBK305751] the figure was 109%; with `O=C(NC1CCS(=O)(=O)C1)c1cc2ccc(OC(F)(F)F)cc2[nH]1` (stereo not drawn) [CBK305754], 92.4%; with `CC1CCCN(CC(=O)NCc2ccc(OCC(N)=O)cc2)CC1` (stereo not drawn) [CBK305755], 92.1%.
Still for that read-out and setting: then `CN(CC(N)=O)C(=O)CCn1c(=O)oc2cc(Cl)ccc21` [CBK305757], with 94.9%.
Consider `Cc1nc(CC(=O)N2CCOC(c3ccc(F)cc3)C2)cs1` (stereo not drawn) [CBK305759], for which the viability at 28.5 h, 10 µM amounted to 106%.
On the same count and under the same terms, then `Cc1cc(NC(=O)CN2CCC(CNc3ccccn3)C2)on1` (stereo not drawn) [CBK305760], with 89.2%.
On to `CCN(Cc1ccco1)C(=O)NC1CCCc2c1cnn2CCO` (stereo not drawn) [CBK305767], for which the viability at 28.5 h, 10 µM stood at 101%.
On the same count and under the same terms, with `CC1CCC(C(N)=O)CN1C(=O)c1cc(Br)c[nH]1` (stereo not drawn) [CBK305769] the figure was 94%.
In the case of `Cn1ccc(CN2CCOC(c3nc(C(C)(C)C)cs3)C2)cc1=O` (stereo not drawn) [CBK305771], the viability at 28.5 h, 10 µM worked out at 108%.
The same measure, in the same setting: with `Cc1nnc(CN2CCOC(c3nc(C(C)(C)C)cs3)C2)n1C` (stereo not drawn) [CBK305772] the figure was 93.1%; with `CC1CCC(C(N)=O)CN1C(=O)c1cncc(Br)c1` (stereo not drawn) [CBK305773], 96.3%.
With `CCC1CN(CC(=O)NCc2ccc(OCC(N)=O)cc2)CCO1` (stereo not drawn) [CBK305774], the viability at 28.5 h, 10 µM came out at 102%.
Still for that read-out and setting: with `Cc1nc(C(F)(F)F)ccc1C(=O)Nc1nc(CC(N)=O)cs1` [CBK305776] the figure was 100%.
As for `CC(C)(C)c1cnc(C(=O)NC2CCCN(c3ncccn3)C2)o1` (stereo not drawn) [CBK305777], the viability at 28.5 h, 10 µM worked out at 92.3%.
Regarding `O=C(CCn1cc(Br)ccc1=O)NC1CCN(Cc2ccccc2)CC1` [CBK305778], the viability at 28.5 h, 10 µM is 101%.
The same measure, in the same setting: then `Cc1cc(CN(C)C(=O)Cc2csc(NC(=O)c3ccoc3C)n2)no1` [CBK305779], with 102%; and `CC(Oc1cccc(C#N)c1)C(=O)NCC1(N2CCOCC2)CCSC1` (stereo not drawn) [CBK305780], with 94.8%; and `Cc1noc(C)c1CN1CCC(C(O)c2ccccc2)CC1` (stereo not drawn) [CBK305783], with 93.9%.
With `OC1CCN(CC(O)Cn2c3ccccc3c3ccccc32)CC1` (stereo not drawn) [CBK305784], the viability at 28.5 h, 10 µM is 100%.
For the compound `Cc1nc(-c2cccnc2)[nH]c(=O)c1CC(=O)N(C)CC1CCCCC1` [CBK305785], the viability at 28.5 h, 10 µM is 91.4%.
On the same count and under the same terms, with `COc1ccccc1CN(C(=O)Nc1ccc(S(C)(=O)=O)cc1)C1CC1` [CBK305787] the figure was 90.9%; with `COc1ccc(C)cc1-n1ccc(C(=O)NC(C)(C)C(N)=O)n1` [CBK305789], 94.1%.
Still for that read-out and setting: then `CC(C)CN1CCC(NC(=O)c2csc(-c3cnn(C)c3)n2)CC1` [CBK305790], with 97.2%.
As for `Cn1cnnc1C1CCCN(C(=O)NCc2cccc(F)c2)C1` (stereo not drawn) [CBK305792], the viability at 28.5 h, 10 µM is 101%.
For `CCC1CN(C(=O)Cn2cnc3ccc(F)cc3c2=O)CCO1` (stereo not drawn) [CBK305795], the viability at 28.5 h, 10 µM was determined as 92.4%.
Same read-out and setting: then `Cc1cc(C)n(-c2ccc(CN3C(=O)NC4(CCCC4)C3=O)cc2)n1` [CBK305796], with 88.3%; and `CC(NS(=O)(=O)c1ccccc1Cl)C(=O)N1CCCCC1C` (stereo not drawn) [CBK305797], with 93.9%; and `COc1cccc(NC(=O)CN2CCC(NC(=O)c3cccs3)CC2)c1` [CBK305800], with 96.3%.
As for `CCC1CCCN(C(=O)Cc2c(C)nc(-c3cccnc3)[nH]c2=O)C1` (stereo not drawn) [CBK305801], the viability at 28.5 h, 10 µM came out at 91.7%.
The same measure, in the same setting: then `Cc1cccn2c(=O)cc(CN3CCC(c4cnn(C)c4)CC3)nc12` [CBK305806], with 101%; and `Cc1sc2[nH]c(CCC(=O)N3CCCC(C)CC3)nc(=O)c2c1C` (stereo not drawn) [CBK305807], with 103%; and `COc1ccnc(N2CCN(Cc3nnnn3C3CC3)CC2)n1` [CBK305808], with 85.6%.
Take `CC(c1ccc(F)c(F)c1)N(C)C(=O)Cn1[nH]c(=O)ccc1=O` (stereo not drawn) [CBK305810]: the viability at 28.5 h, 10 µM was 81.2%.
Turning to `Cc1noc(C)c1CN1CCC(Oc2ccccc2)CC1` [CBK305811], the viability at 28.5 h, 10 µM was found to be 89.6%.
Same read-out and setting: with `NC(=O)NC(CC(=O)N1CCc2sccc2C1)c1cccc(Br)c1` (stereo not drawn) [CBK305813] the figure was 95%; with `O=C(NC1CCCCC1)C1CCCN(C(=O)NCc2ccccn2)C1` (stereo not drawn) [CBK305814], 114%.

Staying with this data set, now noted: human, hela cells, % viability, bulk resorufin, single well.
For `COCCn1cc(C(=O)N(CC(N)=O)C2CCCC2)c2ccccc21` [CBK305802], the viability at 28.5 h, 10 µM came out at 84.1%.
